Assay results published in publication PMC9929129, “Towards Translation of PqsR Inverse Agonists: From In Vitro Efficacy Optimization to In Vivo Proof‐of‐Principle” (Advanced Science, 2023).
pIC50: −log10 of the molar value.

Legend:
[1] = Metabolic stability in mouse liver S9 fractions; assay type: in vitro ADME; conditions: liver S9 fraction, read-out: Mouse liver S9 t½
TRPV1 channel = target: T1, TRPV1 channel (Homo sapiens, UniProt Q8NER1); experiment: Ion channel profiling at Charles River: TRPV1; assay type: cell-based; conditions: expressed in HEK293 cells; read-out: ESTIMATED IC50
T1 construct: host or cells: HEK293 cells
Procedure: 1.4.3 Ion Channel Profiling at Charles River
Table S9. Compound 24 was tested against the following ion channels at Charles River Laboratories. […]
FLIPR Assay expressed in HEK293 cells
GABAA α5/β3/γ2 ionotropic receptor (human GABRA5, GABRB3, >30 and GABRG2 genes, expressed in HEK293 cells […]
TRPV1 channel (human TRPV1 gene) expressed in HEK293 cells >30 […]
An increase in the number of colonies of at least two-fold over baseline (mean + SD of the vehicle control) and a dose response indicate a positive response. An […]
different from the vehicle control.
Where indicated, S9 fraction from the livers of Aroclor 1254-treated rats were included in the incubation at a final concentration of 4.5%. A NADPH-regenerating system was also included to ensure a steady supply of reducing equivalents.

5-HT1A (h) = target: T2, 5-HT1A (h) (Homo sapiens, UniProt P08908); experiment: Cerep panel binding assay; conditions: agonist radioligand
T2 construct: purchased Eurofins Pharma Discovery (Cerep) SafetyScreen44 Panel, ITEM P270
Procedure: (§1) 1.4 Safety Pharmacology of Compound 24
(§2) 1.4.1 Cerep panel (Eurofins)
(§3) Compound 24 was further profiled for its off-target interactions against a panel of 44 targets. The
(§4) screening was done by Eurofins Pharma Discovery within the SafetyScreen44 Panel (Cerep, ITEM
(§5) P270). In all assays binding/functional inhibition was determined at 10 µM.
(§6) Table S6. […]

5-HT1B (h) = target: T3, 5-HT1B (h) (Homo sapiens, UniProt P28222); experiment: Cerep panel binding assay; conditions: antagonist radioligand
T3 construct: Eurofins Pharma Discovery (CRO that ran the assay) SafetyScreen44 Panel (Cerep, ITEM P270)
Procedure: as §1, §2, §3, §4, §5, §6

5-HT2A (h) = target: T4, 5-HT2A (h) (Homo sapiens, UniProt P28223); experiment: Cerep panel binding assay; conditions: agonist radioligand
T4 construct: Eurofins Pharma Discovery (CRO that ran the assay) SafetyScreen44 Panel (Cerep, ITEM P270)
Procedure: as §1, §2, §3, §4, §5, §6

5-HT2B (h) = target: T5, 5-HT2B (h) (Homo sapiens, UniProt P41595); experiment: Cerep panel binding assay; conditions: agonist radioligand
T5 construct: purchased Eurofins Pharma Discovery (Cerep) SafetyScreen44 Panel, ITEM P270
Procedure: as §1, §2, §3, §4, §5, §6

CB1 (h) = target: T6, CB1 (h) (Homo sapiens, UniProt P21554); experiment: Cerep panel binding assay; conditions: agonist radioligand
T6 construct: purchased Eurofins Pharma Discovery (Cerep) SafetyScreen44 Panel, ITEM P270
Procedure: as §1, §2, §3, §4, §5, §6

GR (h) = target: T7, GR (h) (Homo sapiens, UniProt P04150); experiment: Cerep panel binding assay; conditions: agonist radioligand
T7 construct: purchased Eurofins Pharma Discovery (Cerep) SafetyScreen44 Panel, ITEM P270
Procedure: as §1, §2, §3, §4, §5, §6

H2 (h) = target: T8, H2 (h) (Homo sapiens, UniProt P25021); experiment: Cerep panel binding assay; conditions: antagonist radioligand
T8 construct: Eurofins Pharma Discovery (CRO that ran the assay) SafetyScreen44 Panel (Cerep, ITEM P270)
Procedure: as §1, §2, §3, §4, §5, §6

KV channel = experiment: Cerep panel binding assay; conditions: 10 µM, antagonist radioligand
Procedure: as §1, §2, §3, §4, §5, §6

M3 (h) = target: T9, M3 (h) (Homo sapiens, UniProt P20309); experiment: Cerep panel binding assay; conditions: antagonist radioligand
T9 construct: Eurofins Pharma Discovery (CRO that ran the assay) SafetyScreen44 Panel (Cerep, ITEM P270)
Procedure: as §1, §2, §3, §4, §5, §6

alpha2A (h) = target: T10, alpha2A (h) (Homo sapiens, UniProt P08913); experiment: Cerep panel binding assay; conditions: antagonist radioligand
T10 construct: purchased Eurofins Pharma Discovery (Cerep) SafetyScreen44 Panel, ITEM P270
Procedure: as §1, §2, §3, §4, §5, §6

beta1 (h) = target: T11, beta1 (h) (Homo sapiens, UniProt P08588); experiment: Cerep panel binding assay; conditions: agonist radioligand
T11 construct: purchased Eurofins Pharma Discovery (Cerep) SafetyScreen44 Panel, ITEM P270
Procedure: as §1, §2, §3, §4, §5, §6

beta2 (h) = target: T12, beta2 (h) (Homo sapiens, UniProt P07550); experiment: Cerep panel binding assay; conditions: antagonist radioligand
T12 construct: purchased Eurofins Pharma Discovery (Cerep) SafetyScreen44 Panel, ITEM P270
Procedure: as §1, §2, §3, §4, §5, §6

dopamine transporter (h) = target: T13, dopamine transporter (h) (Homo sapiens, UniProt Q01959); experiment: Cerep panel binding assay; conditions: antagonist radioligand
T13 construct: purchased Eurofins Pharma Discovery (Cerep) SafetyScreen44 Panel, ITEM P270
Procedure: as §1, §2, §3, §4, §5, §6

mu (MOP) (h) = target: T14, mu (MOP) (h) (Homo sapiens, UniProt P35372); experiment: Cerep panel binding assay; conditions: agonist radioligand
T14 construct: purchased Eurofins Pharma Discovery (Cerep) SafetyScreen44 Panel, ITEM P270
Procedure: as §1, §2, §3, §4, §5, §6

COX-1 (h) = target: T15, COX-1 (h) (Homo sapiens, UniProt P23219); experiment: Cerep panel functional assay; assay type: biochemical
T15 construct: Eurofins Pharma Discovery (CRO that ran the assay) SafetyScreen44 Panel (Cerep, ITEM P270)
Procedure: as §1, §2, §3, §4
(§7) P270). In all assays binding/functional inhibition was determined at 10 µM. […]

COX-2 (h) = target: T16, COX-2 (h) (Homo sapiens, UniProt P35354); experiment: Cerep panel functional assay; assay type: biochemical
T16 construct: Eurofins Pharma Discovery (CRO that ran the assay) SafetyScreen44 Panel (Cerep, ITEM P270)
Procedure: as §1, §2, §3, §4, §7

Lck kinase (h) = target: T17, Lck kinase (h) (Homo sapiens, UniProt P06239); experiment: Cerep panel functional assay; assay type: biochemical
T17 construct: Eurofins Pharma Discovery (CRO that ran the assay) SafetyScreen44 Panel (Cerep, ITEM P270)
Procedure: as §1, §2, §3, §4, §7

PDE3A (h) = target: T18, PDE3A (h) (Homo sapiens, UniProt Q14432); experiment: Cerep panel functional assay; assay type: biochemical
T18 construct: Eurofins Pharma Discovery (CRO that ran the assay) SafetyScreen44 Panel (Cerep, ITEM P270)
Procedure: as §1, §2, §3, §4, §7

PDE4D2 (h) = target: T19, PDE4D2 (h) (Homo sapiens, UniProt Q08499); experiment: Cerep panel functional assay; assay type: biochemical
T19 construct: Eurofins Pharma Discovery (CRO that ran the assay) SafetyScreen44 Panel (Cerep, ITEM P270)
Procedure: as §1, §2, §3, §4, §7

acetylcholinesterase (h) = target: T20, acetylcholinesterase (h) (Homo sapiens, UniProt P22303); experiment: Cerep panel functional assay; assay type: biochemical
T20 construct: Eurofins Pharma Discovery (CRO that ran the assay) SafetyScreen44 Panel (Cerep, ITEM P270)
Procedure: as §1, §2, §3, §4, §7

[2] = Metabolic stability in mouse liver microsomes (MLM)
Procedure: 1.3.2 Metabolic-Stability Tests in Mouse Liver Microsomes (MLM).
Phase I metabolic stability was evaluated by incubating the compound (1 μM) with 0.5 mg/mL MLM (Corning) and 1 mM NADPH at 37 °C for 0, 5, 10, 15 and 30 min. The enzymatic activity of the MLM was determined by measuring the metabolic stability of Verapamil, Diphenhydramine and Benzydamine (1 μM each).
The half-life (t1/2) was determined by analyzing the concentrations of the compounds at the different time points by HPLC-MS/MS.

T13 sequence (Q01959 whole entry): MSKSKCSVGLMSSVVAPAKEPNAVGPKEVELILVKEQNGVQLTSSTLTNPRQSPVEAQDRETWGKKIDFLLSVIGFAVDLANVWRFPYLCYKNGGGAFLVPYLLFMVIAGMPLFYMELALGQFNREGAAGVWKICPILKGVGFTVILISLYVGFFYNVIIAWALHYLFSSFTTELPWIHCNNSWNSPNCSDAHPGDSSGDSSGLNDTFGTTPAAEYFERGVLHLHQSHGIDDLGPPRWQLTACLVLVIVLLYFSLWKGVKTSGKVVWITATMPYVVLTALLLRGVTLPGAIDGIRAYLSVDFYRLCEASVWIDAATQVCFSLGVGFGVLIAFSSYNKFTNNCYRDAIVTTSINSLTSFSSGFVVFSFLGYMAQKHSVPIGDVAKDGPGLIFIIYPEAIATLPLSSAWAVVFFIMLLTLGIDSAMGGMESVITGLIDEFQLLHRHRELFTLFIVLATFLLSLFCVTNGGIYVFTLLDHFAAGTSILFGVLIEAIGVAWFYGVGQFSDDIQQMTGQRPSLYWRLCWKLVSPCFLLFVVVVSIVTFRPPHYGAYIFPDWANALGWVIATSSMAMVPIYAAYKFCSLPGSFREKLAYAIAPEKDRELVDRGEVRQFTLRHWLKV
T2 sequence (P08908 whole entry): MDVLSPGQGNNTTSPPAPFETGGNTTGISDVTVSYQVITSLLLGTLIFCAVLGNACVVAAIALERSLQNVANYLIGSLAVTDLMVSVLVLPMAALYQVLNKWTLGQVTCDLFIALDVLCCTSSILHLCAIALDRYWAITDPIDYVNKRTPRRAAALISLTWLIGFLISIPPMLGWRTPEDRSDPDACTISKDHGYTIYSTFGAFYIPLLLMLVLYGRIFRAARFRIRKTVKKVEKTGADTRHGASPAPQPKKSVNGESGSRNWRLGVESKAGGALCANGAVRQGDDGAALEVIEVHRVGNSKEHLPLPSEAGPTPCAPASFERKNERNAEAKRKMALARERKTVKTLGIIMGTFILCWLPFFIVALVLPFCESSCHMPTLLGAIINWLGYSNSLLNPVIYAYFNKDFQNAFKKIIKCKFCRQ
T9 sequence (P20309 whole entry): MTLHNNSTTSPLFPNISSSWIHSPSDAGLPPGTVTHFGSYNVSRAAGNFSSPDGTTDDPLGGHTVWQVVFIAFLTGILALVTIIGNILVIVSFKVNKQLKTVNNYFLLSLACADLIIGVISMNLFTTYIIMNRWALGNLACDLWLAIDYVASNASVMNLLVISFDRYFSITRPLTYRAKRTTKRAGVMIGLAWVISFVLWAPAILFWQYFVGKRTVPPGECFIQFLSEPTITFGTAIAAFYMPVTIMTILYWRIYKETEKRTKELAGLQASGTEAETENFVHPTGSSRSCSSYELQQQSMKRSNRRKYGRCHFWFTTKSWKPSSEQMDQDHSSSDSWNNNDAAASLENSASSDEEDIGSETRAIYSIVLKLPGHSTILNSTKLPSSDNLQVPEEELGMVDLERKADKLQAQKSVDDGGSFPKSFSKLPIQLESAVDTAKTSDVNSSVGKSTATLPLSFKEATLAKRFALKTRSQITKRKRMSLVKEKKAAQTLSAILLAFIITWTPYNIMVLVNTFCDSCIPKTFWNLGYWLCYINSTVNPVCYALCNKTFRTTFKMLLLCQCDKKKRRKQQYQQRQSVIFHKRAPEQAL
T19 sequence (Q08499 303-809 limits assumed): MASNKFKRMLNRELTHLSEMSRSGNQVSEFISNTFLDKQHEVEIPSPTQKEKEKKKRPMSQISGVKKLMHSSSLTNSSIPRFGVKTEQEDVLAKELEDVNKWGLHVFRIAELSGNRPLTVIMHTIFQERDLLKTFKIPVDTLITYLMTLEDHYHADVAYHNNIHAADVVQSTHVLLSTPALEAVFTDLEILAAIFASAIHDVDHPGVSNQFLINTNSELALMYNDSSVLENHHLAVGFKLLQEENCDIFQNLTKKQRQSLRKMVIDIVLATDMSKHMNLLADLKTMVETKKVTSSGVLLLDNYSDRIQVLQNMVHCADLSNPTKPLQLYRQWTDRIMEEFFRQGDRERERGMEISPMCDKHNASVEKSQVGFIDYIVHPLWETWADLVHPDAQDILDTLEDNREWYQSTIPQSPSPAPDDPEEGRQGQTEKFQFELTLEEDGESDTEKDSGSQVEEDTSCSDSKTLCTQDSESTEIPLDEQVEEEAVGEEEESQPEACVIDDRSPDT
T8 sequence (P25021 whole entry): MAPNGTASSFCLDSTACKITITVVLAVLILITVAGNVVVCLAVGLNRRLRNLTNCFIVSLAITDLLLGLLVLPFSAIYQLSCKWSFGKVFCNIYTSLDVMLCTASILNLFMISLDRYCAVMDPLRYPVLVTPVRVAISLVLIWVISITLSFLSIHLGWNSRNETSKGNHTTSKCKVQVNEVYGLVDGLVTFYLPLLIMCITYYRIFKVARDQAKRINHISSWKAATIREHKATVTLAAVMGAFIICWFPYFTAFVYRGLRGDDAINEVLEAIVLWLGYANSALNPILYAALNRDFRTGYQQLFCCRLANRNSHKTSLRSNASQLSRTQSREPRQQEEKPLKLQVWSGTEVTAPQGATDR
T16 sequence (P35354 18-604): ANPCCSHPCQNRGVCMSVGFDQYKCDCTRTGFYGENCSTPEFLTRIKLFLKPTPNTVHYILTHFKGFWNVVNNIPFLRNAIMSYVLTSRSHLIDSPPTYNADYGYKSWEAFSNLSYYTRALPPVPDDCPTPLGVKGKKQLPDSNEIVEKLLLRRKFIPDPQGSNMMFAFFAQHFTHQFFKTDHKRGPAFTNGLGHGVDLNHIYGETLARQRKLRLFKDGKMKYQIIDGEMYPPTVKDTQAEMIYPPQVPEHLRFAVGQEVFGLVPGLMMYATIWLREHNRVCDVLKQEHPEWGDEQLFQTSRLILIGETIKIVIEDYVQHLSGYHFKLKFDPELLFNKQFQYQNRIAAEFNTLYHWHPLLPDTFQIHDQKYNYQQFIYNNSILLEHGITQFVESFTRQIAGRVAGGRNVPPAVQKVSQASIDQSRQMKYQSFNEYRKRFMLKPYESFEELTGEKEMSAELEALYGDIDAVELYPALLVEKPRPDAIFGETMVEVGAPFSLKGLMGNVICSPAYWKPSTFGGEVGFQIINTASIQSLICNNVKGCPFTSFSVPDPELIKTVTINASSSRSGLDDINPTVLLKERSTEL
T17 sequence (P06239 whole entry): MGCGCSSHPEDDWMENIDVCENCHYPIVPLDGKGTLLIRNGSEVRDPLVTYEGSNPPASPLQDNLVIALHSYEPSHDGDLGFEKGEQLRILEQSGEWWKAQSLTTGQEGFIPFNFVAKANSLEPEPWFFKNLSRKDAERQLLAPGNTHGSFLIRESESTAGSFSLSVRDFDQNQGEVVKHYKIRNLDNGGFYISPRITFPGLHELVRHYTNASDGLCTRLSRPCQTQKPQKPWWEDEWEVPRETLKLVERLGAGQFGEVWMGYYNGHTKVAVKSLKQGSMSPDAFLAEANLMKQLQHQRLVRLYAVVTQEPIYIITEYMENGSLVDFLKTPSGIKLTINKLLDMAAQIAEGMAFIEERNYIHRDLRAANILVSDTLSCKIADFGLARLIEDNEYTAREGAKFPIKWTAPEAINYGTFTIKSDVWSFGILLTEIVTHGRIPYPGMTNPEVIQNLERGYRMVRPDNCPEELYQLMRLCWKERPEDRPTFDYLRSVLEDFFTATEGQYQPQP
T11 sequence (P08588 whole entry): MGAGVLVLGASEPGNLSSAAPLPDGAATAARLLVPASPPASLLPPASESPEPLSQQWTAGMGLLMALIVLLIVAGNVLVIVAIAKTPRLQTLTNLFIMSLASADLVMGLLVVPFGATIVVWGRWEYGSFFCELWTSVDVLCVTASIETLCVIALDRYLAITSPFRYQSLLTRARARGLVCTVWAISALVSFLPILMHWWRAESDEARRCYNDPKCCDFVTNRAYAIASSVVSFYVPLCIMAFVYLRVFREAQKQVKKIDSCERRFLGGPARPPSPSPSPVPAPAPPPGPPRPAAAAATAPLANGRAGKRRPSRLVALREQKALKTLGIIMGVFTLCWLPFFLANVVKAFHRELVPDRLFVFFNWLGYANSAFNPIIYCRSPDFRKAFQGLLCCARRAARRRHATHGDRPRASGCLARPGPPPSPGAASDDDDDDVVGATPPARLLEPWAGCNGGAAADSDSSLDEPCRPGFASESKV
T7 sequence (P04150 whole entry): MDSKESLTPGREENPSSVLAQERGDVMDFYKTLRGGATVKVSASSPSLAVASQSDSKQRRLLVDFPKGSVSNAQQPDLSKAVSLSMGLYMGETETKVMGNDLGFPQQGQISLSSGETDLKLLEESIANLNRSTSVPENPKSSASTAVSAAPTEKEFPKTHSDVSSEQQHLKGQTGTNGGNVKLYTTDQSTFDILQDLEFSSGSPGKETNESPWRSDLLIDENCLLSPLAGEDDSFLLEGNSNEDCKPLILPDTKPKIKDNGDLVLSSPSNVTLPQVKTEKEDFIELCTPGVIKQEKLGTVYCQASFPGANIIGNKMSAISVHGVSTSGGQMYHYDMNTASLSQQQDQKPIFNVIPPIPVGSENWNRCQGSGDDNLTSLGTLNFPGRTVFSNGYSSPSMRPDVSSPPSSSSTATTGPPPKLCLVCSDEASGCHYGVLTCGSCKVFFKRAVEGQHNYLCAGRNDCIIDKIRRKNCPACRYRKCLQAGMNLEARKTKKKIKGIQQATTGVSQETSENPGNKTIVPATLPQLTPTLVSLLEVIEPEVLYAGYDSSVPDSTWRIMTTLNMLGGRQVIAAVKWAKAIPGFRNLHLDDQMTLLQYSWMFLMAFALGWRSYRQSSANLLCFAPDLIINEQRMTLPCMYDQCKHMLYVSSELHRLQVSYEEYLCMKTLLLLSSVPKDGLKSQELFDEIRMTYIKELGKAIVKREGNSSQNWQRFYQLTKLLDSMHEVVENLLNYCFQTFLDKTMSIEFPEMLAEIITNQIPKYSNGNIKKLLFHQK

Question: With `CC(C)Oc1ccc(-c2ncc(CNc3ccnc(C(F)(F)F)c3)cn2)cc1Cl` [Compound 24] as the compound, how does the half-life [1] read?
Answer: 50 min

Question: What about the pIC50 (TRPV1 channel) of the same compound?
Answer: < 4.52

Question: What about the inhibition at 10 µM (5-HT1A (h)) of the same compound?
Answer: 11.3%

Question: And the inhibition at 10 µM (5-HT1B (h))?
Answer: -6.7%

Question: What about the inhibition at 10 µM (5-HT2A (h)) of the same compound?
Answer: -2.8%

Question: And the inhibition at 10 µM (5-HT2B (h))?
Answer: 62.2%

Question: And the inhibition at 10 µM (CB1 (h))?
Answer: 16.3%

Question: And the inhibition at 10 µM (GR (h))?
Answer: 16.2%

Question: And the inhibition at 10 µM (H2 (h))?
Answer: -30%

Question: What about the “BINDING (%)” value (KV channel) of the same compound?
Answer: 14.2%

Question: What about the inhibition at 10 µM (M3 (h)) of the same compound?
Answer: -2%

Question: What about the inhibition at 10 µM (alpha2A (h)) of the same compound?
Answer: 8.4%

Question: What about the inhibition at 10 µM (beta1 (h)) of the same compound?
Answer: 7.1%

Question: What about the inhibition at 10 µM (beta2 (h)) of the same compound?
Answer: 7.9%

Question: And the inhibition at 10 µM (dopamine transporter (h))?
Answer: 22.7%

Question: And the inhibition at 10 µM (mu (MOP) (h))?
Answer: 8.2%

Question: And the inhibition at 10 µM (COX-1 (h))?
Answer: 8.8%

Question: And the inhibition at 10 µM (COX-2 (h))?
Answer: 19.1%

Question: And the inhibition at 10 µM (Lck kinase (h))?
Answer: -6.8%

Question: What about the inhibition at 10 µM (PDE3A (h)) of the same compound?
Answer: 0.3%

Question: And the inhibition at 10 µM (PDE4D2 (h))?
Answer: 6.7%

Question: What about the inhibition at 10 µM (acetylcholinesterase (h)) of the same compound?
Answer: -1.9%

Question: What about the half-life at 1 μM [2] of the same compound?
Answer: 19 min
